Data as given in patent publication US10130598B2, “Methods and compositions for administration of 3-halopyruvate and related compounds for the treatment of cancer” (The Johns Hopkins University, priority 2008, dated 2018).

Legend:
[1] = General toxicology studies, oral NaHCO3-buffered 3-BrPA; assay type: in vivo, nude mice; conditions: 100 and 200 mg/kg/day oral, single dose to 3-months of daily dosing
Description: General toxicology studies were conducted on nude mice that were orally administered NaHCO3-buffered 3-BrPA at doses of 0, 100 and 200 mg/kg/day. The duration of exposure in this study ranged from a single dose to 3-months of daily dosing. […] 3-BrPA treatment had no effect on body weight.

[2] = test system: Human PANC-10 pancreatic cancer cells; assay: Orthotopic xenograft pancreatic cancer model, oral 3-BrPA; assay type: in vivo, NOD/SCID mice; conditions: for Tumor size at day 50: NaHCO3-buffered, oral
Description: The efficacy of orally administered 3-BrPA in the treatment of pancreatic cancer was tested using an orthotopic xenograft pancreatic cancer model. Human PANC-10 pancreatic cancer cells were implanted into the pancreas of NOD/SCID mice and allowed to form 4-5 mm^3 sized tumors. Following the establishment of the tumors, tumor-bearing mice were orally administered 250 μl of a NaHCO3-buffered solution containing varying concentrations of 3-BrPA once per day. After 50 days of treatment, the tumor-bearing mice were sacrificed and tumor growth and cancer cell proliferation was analyzed.

[3] = test system: Hep3B, HepG2, SK-Hep1 and VX2 cells; assay: Annexin V apoptosis assay (flow cytometry and fluorescent microscopy); assay type: cell-based
Description: The apoptosis of 3-BrPA treated cells was evaluated using Annexin V staining and the formation of active caspase-3. Cells treated with 3-BrPA were stained with anti-Annexin V and analyzed by flow cytometry as well as fluorescent microscopy. Flow cytometry was performed using a Becton-Dickinson FACSCalibur. The gating was done based on unstained control cells, Annexin V—PE stained and 7-AAD stained control cells. For fluorescent microscopy, Annexin V staining was performed using Annexin V staining Microscopy kit (BD Biosciences, USA) according to the protocol recommended by the manufacturer. In brief, cells grown in chambered slides were treated with either 3BrPA or the vehicle, washed once with ice-cold PBS followed by two washes with binding buffer, at the end of the treatment period. Cells were then incubated with the FITC-conjugated Annexin V fluorescent antibody for 15 min followed by a gentle wash. The cells were kept in binding buffer and images were observed captured using a Zeiss Axiovert 200 Microscope (Carl Zeiss Microimaging Inc., USA). Active caspase-3, an apoptotic marker, was identified by western blot analysis. Lysates prepared from equal numbers of cells treated with different concentrations of 3BrPA were subjected to SDS-PAGE electrophoresis and immunoblotting against active (cleaved) caspase-3.
In order to confirm that the cytotoxic effects of 3BrPA involves cellular apoptotic pathways, Annexin V levels and Caspase-3 activation was examined in cells treated with 3-BrPA. […] Additionally, immunoblotting of cell lysates with activated-Caspase-3 specific antibodies confirmed the activation of caspase-3 during 3BrPA mediated cell death (FIG. 8).

[4] = ATP luminescent assay of 3-BrPA dissolved in alternative buffers; assay type: cell-based
Description: Cytotoxicity of 3-BrPA was evaluated by the IC50 values, representing the drug concentration which depletes ATP by 50% compared to non-treated control. On day 1, cells were seeded into 96-well plates in a volume of 100 μl per well. On day 2, the medium of all wells was removed and an aliquot of 100 μl of media having serial dilutions of 3-BrPA in PBS, NaHCO3, NaOH, KOH and KHCO3 was added to the appropriate well. After 24 h of drug exposure cytotoxic effects of 3-BrPA were monitored by cellular ATP level using CellTiter-Glo™ assay reagents from Promega Corp (Madison, Wis.). Briefly, 100 μl assay reagent was added to each well and mixed at room temperature for 2 min to develop luminescent signal. The luminescence intensity (cps) from each sample was determined with a spectrometer (Model Victor III, Perkin Elmer, Mass.). Relative luminescence was calculated in proportion to the numbers of living cells per sample well. The results are expressed as the mean of three independent experiments. The intracellular ATP contents were calculated and normalized by equal cell number and expressed as the percentage of the control cells. The IC50 values were estimated graphically from dose-response plots.
Based on the results described in Example 1, it was concluded that 10 mg of 3-BrPA is the maximum tolerated dose (MTD) if dissolved in 2.75 ml of PBS. […]

[5] = test system: MCF7 cells; assay: Trypan blue viability assay, MCF7; assay type: cell-based
Source text: The non-small cell lung cancer (NSCLC) cell line NCI-H1299, the breast cancer cell lines MCF7 and MDA MB 231 and the Hep3B, Hep2G and SK-Hep1 cells were obtained from the American Type Culture Collection (ATCC) (Manassas, Va., USA) and maintained as a monolayer culture in Eagle's minimum essential medium (MEM, Invitrogen, Gaithersburg, Md., USA) supplemented with 10% fetal bovine serum at 37 C and 5% CO2. All treatments were done in triplicate samples on 96-well plates. VX2 cells were maintained as described in Geschwind et al., Cancer Res., 62:3909-3913 (2002).
The efficacy of 3-BrPA in the treatment of breast cancer cells was tested using the cancer cell lines MCF7 and MDA MB 231. As described above, the cell lines were grown as monolayers in MEM (Invitrogen) supplemented with 10% fetal bovine serum (HyClone) at 37 C.° and 5% CO2, and all treatments were done in triplicate samples on 96-well plates.
The EC50 of 3-BrPA for MCF7 cells lies between 0.05 and 0.06 mM. […] Therefore, considering that oral administration of 3-BrPA buffered in NaHCO3 is effective in prolonging survival in liver cancer models (Example 2), it is probable that oral administration of 3-BrPA buffered in NaHCO3 would also be effective in the treatment of breast cancer.

## O=C(O)C(=O)CBr [3-BrPA, 3-bromopyruvate]
[1]
  Clinical symptoms: did not exhibit any treatment related clinical symptoms
  Effect on body weight: no effect
  Mortality: no mortalities
  Organ weights, gross pathology and histopathology: did not show any treatment-related changes
[2]; daily dose of 50 mg/kg
  Tumor size at day 50: 12-14 mm^3
  Local metastases: lacked any signs of local metastases
  Mitotic index: 9-10 mitotic cells per field
[2]; daily dose of 100 mg/kg
  Tumor size at day 50: 7-8 mm^3
  Local metastases: lacked any signs of local metastases
  Mitotic index: 7 mitotic cells per field
[2]; daily dose of 150 mg/kg
  Tumor size at day 50: 4-6 mm^3
  Local metastases: lacked any signs of local metastases
  Mitotic index: 2-4 mitotic cells per field
[2]; daily dose of 200 mg/kg
  Tumor size at day 50: 3-5 mm^3
  Local metastases: lacked any signs of local metastases
  Mitotic index: 1-2 mitotic cells per field
[2]; daily dose of 200 mg/kg, day 50
  Tumor growth: no signs of growth
[3]; Annexin V-PE and 7-AAD staining, 100 and 200 μM
  Annexin V positive cells (flow cytometry): dose dependent increase
[3]; all cell lines, after 2 hours of treatment, 200 μM
  Number of apoptotic cells compared with control: significant increase
[3]; treated vs control
  Annexin V staining (photomicrographs): elevated levels of Annexin V
[4]; dissolved in NaHCO3
  IC50 value compared to 3-BrPA dissolved in PBS: did not show a significantly different in IC50 value
[4]; other buffers tested (NaOH, KOH and KHCO3)
  IC50 value compared to 3-BrPA dissolved in PBS: significantly higher IC50 values
[5]; 0.05 mM, within 3 hours
  Cells died: more than 40%
[5]; 0.15 mM
  Cell death: 100%
[5]; MCF7
  EC50 compared with EC50 of 3-BrPA for VX2 liver cancer cells: lower
  Viability (trypan blue): dose and time dependent decrease in viability
